# Several values for one entry are separate records, joined by “and”; a condition that tells them apart may be missing. Identical values can stand only once.
# Experiments:
# [1] = system: HeLa cells; experiment: Sphingolipid content of treated HeLa cells by quantitative mass spectrometry; assay type: cell-based; settings: for Cer16 / Cer18 / Cer20 / Cer22 / Cer24 / Cer24:1 / Cer total / S1P / SM16 / SM18 / SM20 / SM22 / SM24 / SM24:1 / SM total / Sph / ratio total SM/Cer: HeLa, 42h, single replicates; for Cer16 / Cer18 / Cer20 / Cer22 / Cer24 / Cer24:1 / Cer total / S1P / SM16 / SM18 / SM20 / SM22 / SM24 / SM24:1 / SM total / Sph: 500.000 cells per sample
# In short: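 HeLa cells were plated in six-well plates at 177000 cells per well in DMEM containing 4mM L-glutamine, 10% FBS and 1% Penicillin-Streptomycin, then exposed to inhibitor. Harvested cells were adjusted to 500.000 per sample, extracted with methanol/chloroform (2:1) containing Cer17 and d31-SM16 internal standards, and quantified for ceramides and sphingomyelins by C8 reversed-phase HPLC coupled to ESI+ triple-quadrupole MS/MS.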
# [2] = system: HeLa cells; experiment: Cellular localization of BODIPY-ceramide by confocal microscopy; assay type: cell-based; settings: 10 µM inhibitor, 2 h
# Protocol: 5.1 Cellular Localization of BODIPY-Ceramide
# HeLa cells were seeded in 8 well chamber slides (ibidi µ-Slide 8 Well) in RPMI 1640 medium supplemented with 10% (v/v) heat‐inactivated FCS, 1 mM sodium pyruvate and 2 mM L-glutamine at 37 °C and 5% (v/v) CO2 in a humidified incubator. The day after, cells were incubated with inhibitors for 2 h at a concentration of 10 µM or left untreated by replacing the medium with fresh medium supplemented with the respective inhibitors. After 2 h of incubation, BODIPY FL C5-ceramide (Thermo Fisher) was added to a final concentration of 0,25 µM and imaging was immediately done using an LSM 780 laser scanning confocal microscope (Carl Zeiss). No additional wash steps were performed. After 1 h of incubation, DNA was counterstained using Hoechst 33342. For quantification of BODIPY-Ceramide trafficking, cells were transfected with pECFP-GalT the day before inhibitor incubation for the expression of an eCFP fusion of the human galactosyltransferase (GalT; amino acids 1-60), which localizes at the Golgi apparatus. After incubation with the respective inhibitors (see above), cells were imaged at 30 min post addition of BODIPY FL C5-ceramide. Mean BODIPY intensities of regions of interest surrounding eCFP-GalT-positive Golgi stacks were measured (40 cells per biological replicate, 4 biological replicates in total) using ImageJ software (Rasband, W.S., ImageJ, U. S. National Institutes of Health, Bethesda, Maryland, USA, https://imagej.nih.gov/ij/, 1997-2018) and divided by the total BODIPY intensity detected in the field of view. Quantification (Fig 10B) is expressed as normalized intensity ratio (GA/total).
# Figure S10. A Uptake of BODIPY FL C5-ceramide to HeLa cells assessed by normalized fluorescence intensity B Distribution of BODIPY FL C5-ceramide by normalized fluorescence […]
# (1 picture or pasted object on this page, not shown here)
# Figure S11. BODIPY-Ceramide trafficking. Confocal images showing distribution of BODIPY FL C5-ceramide (green) and Golgi apparatus costaining (eCFP-GalT; blue) in HeLa cells pretreated with 10 µM of respective inhibitors or left untreated. Figures show representative images (n = 4 biological replicates with 40 cells per biological replicate); scale bars, 10 µm.
smiles,measurement,setting,value
"CC1=NN(c2ccc(C)c(C)c2)C(=O)/C1=N\Nc1cccc(-c2cccc(C(=O)O)c2)c1O [17C9, Eltrombopag]",effect on SM/Cer rate,[1]; HeLa cells,dramatically increased
same,effect on total sphingomyelin,"[1]; HeLa cells, 48 hours, serum-reduced medium",no significant changes
same,Cer16,[1]; 1 µM,"34,40 pmol/sample and 29,98 pmol/sample and 31,42 pmol/sample"
same,Cer18,[1]; 1 µM,"3,09 pmol/sample and 3,68 pmol/sample and 2,62 pmol/sample"
same,Cer20,[1]; 1 µM,"0,85 pmol/sample and 3,45 pmol/sample and 0,80 pmol/sample"
same,Cer22,[1]; 1 µM,"6,25 pmol/sample and 5,55 pmol/sample and 6,14 pmol/sample"
same,Cer24,[1]; 1 µM,"18,45 pmol/sample and 16,72 pmol/sample and 19,49 pmol/sample"
same,Cer24:1,[1]; 1 µM,"39,87 pmol/sample and 35,52 pmol/sample and 38,79 pmol/sample"
same,Cer total,[1]; 1 µM,"102,91 pmol/sample and 96,34 pmol/sample and 97,82 pmol/sample"
same,S1P,[1]; 1 µM,"1,15 pmol/sample and 1,32 pmol/sample and 1,00 pmol/sample"
same,SM16,[1]; 1 µM,"1737,34 pmol/sample and 1866,45 pmol/sample and 1725,36 pmol/sample"
same,SM18,[1]; 1 µM,"50,83 pmol/sample and 50,55 pmol/sample and 45,45 pmol/sample"
same,SM20,[1]; 1 µM,"17,12 pmol/sample and 16,70 pmol/sample and 15,18 pmol/sample"
same,SM22,[1]; 1 µM,"108,33 pmol/sample and 106,97 pmol/sample and 93,72 pmol/sample"
same,SM24,[1]; 1 µM,"172,22 pmol/sample and 163,43 pmol/sample and 147,49 pmol/sample"
same,SM24:1,[1]; 1 µM,"788,48 pmol/sample and 772,38 pmol/sample and 712,32 pmol/sample"
same,SM total,[1]; 1 µM,"2874,32 pmol/sample and 2976,47 pmol/sample and 2739,52 pmol/sample"
same,Sph,[1]; 1 µM,"3,11 pmol/sample and 2,70 pmol/sample and 4,01 pmol/sample"
same,ratio total SM/Cer,[1]; 1 µM,"29,4 and 28,9 and 28,4"
same,Cer16,[1]; 2.5 µM,"32,36 pmol/sample and 33,19 pmol/sample and 28,45 pmol/sample"
same,Cer18,[1]; 2.5 µM,"3,43 pmol/sample and 3,27 pmol/sample and 2,51 pmol/sample"
same,Cer20,[1]; 2.5 µM,"2,29 pmol/sample and 1,23 pmol/sample and 0,90 pmol/sample"
same,Cer22,[1]; 2.5 µM,"6,89 pmol/sample and 6,59 pmol/sample and 5,14 pmol/sample"
same,Cer24,[1]; 2.5 µM,"19,23 pmol/sample and 20,44 pmol/sample and 16,88 pmol/sample"
same,Cer24:1,[1]; 2.5 µM,"39,53 pmol/sample and 38,37 pmol/sample and 33,82 pmol/sample"
same,Cer total,[1]; 2.5 µM,"103,73 pmol/sample and 103,08 pmol/sample and 87,70 pmol/sample"
same,S1P,[1]; 2.5 µM,"1,23 pmol/sample and 1,05 pmol/sample and 1,02 pmol/sample"
same,SM16,[1]; 2.5 µM,"1702,42 pmol/sample and 1763,99 pmol/sample and 1597,48 pmol/sample"
same,SM18,[1]; 2.5 µM,"47,65 pmol/sample and 51,14 pmol/sample and 44,81 pmol/sample"
same,SM20,[1]; 2.5 µM,"15,77 pmol/sample and 16,69 pmol/sample and 14,30 pmol/sample"
same,SM22,[1]; 2.5 µM,"97,64 pmol/sample and 104,36 pmol/sample and 90,89 pmol/sample"
same,SM24,[1]; 2.5 µM,"148,54 pmol/sample and 158,37 pmol/sample and 140,98 pmol/sample"
same,SM24:1,[1]; 2.5 µM,"659,70 pmol/sample and 706,74 pmol/sample and 726,62 pmol/sample"
same,SM total,[1]; 2.5 µM,"2548,15 pmol/sample and 2718,76 pmol/sample and 2821,17 pmol/sample"
same,Sph,[1]; 2.5 µM,"4,57 pmol/sample and 3,32 pmol/sample and 3,82 pmol/sample"
same,ratio total SM/Cer,[1]; 2.5 µM,"29,1 and 26,2 and 27,4"
same,Cer16,[1]; 5 µM,"29,49 pmol/sample and 35,89 pmol/sample and 33,40 pmol/sample"
same,Cer18,[1]; 5 µM,"2,38 pmol/sample and 3,05 pmol/sample and 2,58 pmol/sample"
same,Cer20,[1]; 5 µM,"0,79 pmol/sample and 0,94 pmol/sample and 0,73 pmol/sample"
same,Cer22,[1]; 5 µM,"4,97 pmol/sample and 6,52 pmol/sample and 6,08 pmol/sample"
same,Cer24,[1]; 5 µM,"18,36 pmol/sample and 21,85 pmol/sample and 21,93 pmol/sample"
same,Cer24:1,[1]; 5 µM,"34,90 pmol/sample and 40,79 pmol/sample and 38,77 pmol/sample"
same,Cer total,[1]; 5 µM,"90,90 pmol/sample and 109,04 pmol/sample and 103,49 pmol/sample"
same,S1P,[1]; 5 µM,"0,97 pmol/sample and 0,93 pmol/sample and 0,94 pmol/sample"
same,SM16,[1]; 5 µM,"1510,97 pmol/sample and 1730,88 pmol/sample and 1785,73 pmol/sample"
same,SM18,[1]; 5 µM,"45,08 pmol/sample and 52,99 pmol/sample and 49,27 pmol/sample"
same,SM20,[1]; 5 µM,"14,34 pmol/sample and 17,35 pmol/sample and 16,52 pmol/sample"
same,SM22,[1]; 5 µM,"86,79 pmol/sample and 107,23 pmol/sample and 102,55 pmol/sample"
same,SM24,[1]; 5 µM,"143,47 pmol/sample and 171,51 pmol/sample and 164,74 pmol/sample"
same,SM24:1,[1]; 5 µM,"606,54 pmol/sample and 703,57 pmol/sample and 702,64 pmol/sample"
same,SM total,[1]; 5 µM,"2407,20 pmol/sample and 2783,54 pmol/sample and 2821,45 pmol/sample"
same,Sph,[1]; 5 µM,"3,92 pmol/sample and 3,79 pmol/sample and 3,72 pmol/sample"
same,ratio total SM/Cer,[1]; 5 µM,"26,5 and 25,5 and 27,3"
same,effect on intracellular distribution of BODIPY-Cer,[2],only minor effects

# Source: publication PMC7756341, “Liposomal FRET Assay Identifies Potent Drug‐Like Inhibitors of the Ceramide Transport Protein (CERT)” (Chemistry (Weinheim an Der Bergstrasse, Germany), 2020)
